According to the supplement of paper PMC7244745:
Counter-ions that a name gives are not always drawn. ± gives the uncertainty stated by the source.

What was measured:
[1] = test system: Klebsiella pneumoniae ATCC 13882; experiment: onset of ureolytic pH increase; higher = more delayed ureolysis (inhibition)
Method: (§1)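 Klebsiella pneumoniae ATCC 13882 (start OD600 0.05) grown in M9U medium with 40 mM urea and phenol red plus inhibitor, in triplicate in 96-well plates. A557 and OD630 were read every 15 min for 24 h. Ureolysis was followed as the pH-related A557-A630: onset time, Gompertz-fit rate and final value. Growth was followed as OD630.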

[2] = test system: Klebsiella pneumoniae ATCC 13882; experiment: final OD630 (growth) after 24 h; higher = more bacterial growth; extreme values may be limits of the assay
Method: as §1

[3] = test system: Klebsiella pneumoniae ATCC 13882; experiment: rate of pH (A557-A630) increase, Gompertz fit (10^-4 s-1); higher = faster ureolysis; extreme values may be limits of the assay
Method: as §1

[4] = test system: Klebsiella pneumoniae ATCC 13882; experiment: final pH-related absorbance (A557-A630) after 24 h (absorbance units); higher = more ureolysis; extreme values may be limits of the assay
Method: as §1

| Compound | onset of ureolytic pH increase ([1]; 0.1 mM) [min] | onset of ureolytic pH increase ([1]; 1 mM) [min] | onset of ureolytic pH increase ([1]; 10 mM) [min] | final OD630 ([2]; 0.1 mM) | final OD630 ([2]; 1 mM) | final OD630 ([2]; 10 mM) | rate of pH ([3]; 0.1 mM) | rate of pH ([3]; 1 mM) | rate of pH ([3]; 10 mM) | final pH-related absorbance ([4]; 0.1 mM) | final pH-related absorbance ([4]; 1 mM) | final pH-related absorbance ([4]; 10 mM) | also measured |
| --- | --- | --- | --- | --- | --- | --- | --- | --- | --- | --- | --- | --- | --- |
| CC(=O)NO [Acetohydroxamic acid] | 507 ± 13 | 725 ± 9.2 | > 900 | 0.479 ± 0.016 | 0.356 ± 0.01 | 0.258 ± 0.004 | 1.12 ± 0.047 | 1.31 ± 0.054 | 0 | 0.437 ± 0.044 | 0.057 ± 0.006 | 0 | – |
| CC(=O)NC(N)=S [Acetylthiourea] | – | – | – | – | – | – | – | – | – | – | – | – | onset of ureolytic pH increase ([1]; 0.05 mM): 428 ± 8.9 min; onset of ureolytic pH increase ([1]; 0.5 mM): 425.7 ± 3.9 min; onset of ureolytic pH increase ([1]; 5 mM): 415 ± 16 min; final OD630 ([2]; 0.05 mM): 0.491 ± 0.011; final OD630 ([2]; 0.5 mM): 0.491 ± 0.004; final OD630 ([2]; 5 mM): 0.507 ± 0.021; rate of pH ([3]; 0.05 mM): 2 ± 0.057; rate of pH ([3]; 0.5 mM): 2.03 ± 0.042; rate of pH ([3]; 5 mM): 2.62 ± 0.37; final pH-related absorbance ([4]; 0.05 mM): 0.241 ± 0.011; final pH-related absorbance ([4]; 0.5 mM): 0.246 ± 0.002; final pH-related absorbance ([4]; 5 mM): 0.284 ± 0.05 |
| N#C[S-].[Na+] [Sodium thiocyanate] | 675.2 ± 3.9 | 704 ± 10 | 770 ± 19 | 0.431 ± 0.003 | 0.445 ± 0.0004 | 0.403 ± 0.003 | 1.61 ± 0.036 | 1.6 ± 0.048 | 0.0522 ± 0.0032 | 0.152 ± 0.002 | 0.144 ± 0.0019 | 0.123 ± 0.0011 | – |
| COC(=O)[C@@H](N)CS [L-cysteine methyl ester hydrochloride] | 595.25 ± 0.35 | > 900 | – | 0.457 ± 0.0075 | 0.261 ± 0.0026 | – | 1.55 ± 0.16 | 0 | – | 0.566 ± 0.001 | 0 | – | – |
| O=C(O)C(=O)O [Oxalic acid] | 678 ± 0.9 | 677.1 ± 1.1 | > 900 | 0.435 ± 0.0093 | 0.441 ± 0.0005 | 0.089 ± 0.0056 | 1.52 ± 0.024 | 1.62 ± 0.013 | 0 | 0.334 ± 0.008 | 0.291 ± 0.0011 | 0 | – |
| O=c1oc2ccccc2c(O)c1Cc1c(O)c2ccccc2oc1=O [3.3'-methylene-bis-(4-hydroxycoumarin)] | – | – | – | – | – | – | – | – | – | – | – | – | onset of ureolytic pH increase ([1]; 0.0035 mM): 563 ± 1.1 min; onset of ureolytic pH increase ([1]; 0.035 mM): 592 ± 30 min; onset of ureolytic pH increase ([1]; 0.35 mM): 614 ± 8.9 min; final OD630 ([2]; 0.0035 mM): 0.424 ± 0.0021; final OD630 ([2]; 0.035 mM): 0.409 ± 0.012; final OD630 ([2]; 0.35 mM): 0.403 ± 0.0058; rate of pH ([3]; 0.0035 mM): 1.45 ± 0.019; rate of pH ([3]; 0.035 mM): 1.44 ± 0.039; rate of pH ([3]; 0.35 mM): 1.4; final pH-related absorbance ([4]; 0.0035 mM): 0.161 ± 0.0024; final pH-related absorbance ([4]; 0.035 mM): 0.158 ± 0.0007; final pH-related absorbance ([4]; 0.35 mM): 0.16 ± 0.0029 |
| O=S(O)S(=O)(=O)O [Potassium disulfite] | 427 ± 1.5 | 519 ± 12 | > 900 | 0.462 ± 0.012 | 0.531 ± 0.001 | 0.024 ± 0.002 | 1.766 ± 0.005 | 0.8111 ± 0.002 | 0 | 0.358 ± 0.002 | 0.356 ± 0.014 | 0 | – |
| O[C@@H](CS)[C@@H](O)CS [1.4-dithiothreitol] | 610 ± 19 | 980 ± 19 | 1010 ± 7.1 | 0.432 ± 0.079 | 0.306 ± 0.0084 | 0.264 ± 0.0063 | 1.81 ± 0.074 | 0.11 ± 0.0047 | 0.0642 ± 0.0044 | 0.381 ± 0.013 | 0.274 ± 0.02 | 0.137 ± 0.013 | – |
| S=C=S [Carbon disulfide] | – | – | – | – | – | – | – | – | – | – | – | – | onset of ureolytic pH increase ([1]; 0.0285 mM): 615.5 ± 0.69 min; onset of ureolytic pH increase ([1]; 0.285 mM): 611.8 ± 2.6 min; onset of ureolytic pH increase ([1]; 2.85 mM): 614.4 ± 4.2 min; final OD630 ([2]; 0.0285 mM): 0.416 ± 0.0039; final OD630 ([2]; 0.285 mM): 0.428 ± 0.0051; final OD630 ([2]; 2.85 mM): 0.419 ± 0.0062; rate of pH ([3]; 0.0285 mM): 1.547 ± 0.011; rate of pH ([3]; 0.285 mM): 1.537 ± 0.0055; rate of pH ([3]; 2.85 mM): 1.561 ± 0.0093; final pH-related absorbance ([4]; 0.0285 mM): 0.169 ± 0.0022; final pH-related absorbance ([4]; 0.285 mM): 0.175 ± 0.0006; final pH-related absorbance ([4]; 2.85 mM): 0.175 ± 0.0058 |
| O=C(O)CN(CCN(CC(=O)O)CC(=O)O)CCN(CC(=O)O)CC(=O)O [Diethylenetriaminepentaacetic acid] | – | – | – | – | – | – | – | – | – | – | – | – | onset of ureolytic pH increase ([1]; 0.004 mM): 568 ± 11 min; onset of ureolytic pH increase ([1]; 0.036 mM): > 900 min; onset of ureolytic pH increase ([1]; 0.364 mM): > 900 min; final OD630 ([2]; 0.004 mM): 0.439 ± 0.001; final OD630 ([2]; 0.036 mM): 0.311 ± 0.003; final OD630 ([2]; 0.364 mM): 0.21 ± 0.005; rate of pH ([3]; 0.004 mM): 2.08 ± 0.049; rate of pH ([3]; 0.036 mM): 0; rate of pH ([3]; 0.364 mM): 0; final pH-related absorbance ([4]; 0.004 mM): 0.196 ± 0.016; final pH-related absorbance ([4]; 0.036 mM): 0; final pH-related absorbance ([4]; 0.364 mM): 0 |
| O=[N+]([O-])[O-].[Ag+] [AgNO3] | > 1500 | > 1500 | > 1500 | 0 | 0 | 0 | 0 | 0 | 0 | 0 | 0 | 0 | – |
| O=C(O)c1cc(O)c(O)c(O)c1 [Gallic acid monohydrate] | – | – | – | – | – | – | – | – | – | – | – | – | onset of ureolytic pH increase ([1]; 0.056 mM): 562.9 ± 3.7 min; onset of ureolytic pH increase ([1]; 0.56 mM): 617 ± 18 min; final OD630 ([2]; 0.056 mM): 0.454 ± 0.007; final OD630 ([2]; 0.56 mM): 0.45 ± 0.003; rate of pH ([3]; 0.056 mM): 2.0688 ± 0.0018; rate of pH ([3]; 0.56 mM): 1.8 ± 0.028; final pH-related absorbance ([4]; 0.056 mM): 0.19 ± 0.0003; final pH-related absorbance ([4]; 0.56 mM): 0.191 ± 0.028 |
| NP(N)(=O)Oc1ccccc1 [Phenyl phosphorodiamidate] | – | – | – | – | – | – | – | – | – | – | – | – | onset of ureolytic pH increase ([1]; 0.007 mM): > 900 min; onset of ureolytic pH increase ([1]; 0.07 mM): > 900 min; onset of ureolytic pH increase ([1]; 0.7 mM): > 900 min; final OD630 ([2]; 0.007 mM): 0.421 ± 0.0059; final OD630 ([2]; 0.07 mM): 0.4185 ± 0.004; final OD630 ([2]; 0.7 mM): 0.384 ± 0.01; rate of pH ([3]; 0.007 mM): 0; rate of pH ([3]; 0.07 mM): 0; rate of pH ([3]; 0.7 mM): 0; final pH-related absorbance ([4]; 0.007 mM): 0; final pH-related absorbance ([4]; 0.07 mM): 0; final pH-related absorbance ([4]; 0.7 mM): 0 |
| NS(=O)(=O)O [Sulfamic acid] | 561 ± 12 | 535 ± 7.1 | > 900 | 0.506 ± 0.0081 | 0.515 ± 0.014 | 0 | 2.17 ± 0.036 | 1.96 ± 0.055 | 0 | 0.166 ± 0.019 | 0.182 ± 0.011 | 0 | – |
| N=C(N)NCCC[C@H](N)C(=O)O [L-arginine] | – | – | – | – | – | – | – | – | – | – | – | – | onset of ureolytic pH increase ([1]; 0.094 mM): 636.03 ± 0.24 min; onset of ureolytic pH increase ([1]; 0.943 mM): 558.6 ± 4.4 min; onset of ureolytic pH increase ([1]; 9.43 mM): 592.5 ± 2.5 min; final OD630 ([2]; 0.094 mM): 0.472 ± 0.003; final OD630 ([2]; 0.943 mM): 0.52 ± 0.0037; final OD630 ([2]; 9.43 mM): 0.519 ± 0.0064; rate of pH ([3]; 0.094 mM): 1.72 ± 0.018; rate of pH ([3]; 0.943 mM): 1.69 ± 0.018; rate of pH ([3]; 9.43 mM): 1.66 ± 0.021; final pH-related absorbance ([4]; 0.094 mM): 0.23 ± 0.0075; final pH-related absorbance ([4]; 0.943 mM): 0.238 ± 0.0024; final pH-related absorbance ([4]; 9.43 mM): 0.307 ± 0.0066 |
| O=C1C=CC(=O)C=C1 [p-benzoquinone] | – | – | – | – | – | – | – | – | – | – | – | – | onset of ureolytic pH increase ([1]; 0.017 mM): 681.1 ± 2 min; onset of ureolytic pH increase ([1]; 0.167 mM): > 1500 min; final OD630 ([2]; 0.017 mM): 0.421 ± 0.011; final OD630 ([2]; 0.167 mM): 0; rate of pH ([3]; 0.017 mM): 1.59 ± 0.027; rate of pH ([3]; 0.167 mM): 0; final pH-related absorbance ([4]; 0.017 mM): 0.171 ± 0.0039; final pH-related absorbance ([4]; 0.167 mM): 0 |
